This is an account of results in the pKa sets of Baltruschat and Czodrowski (2020).

As for `[N-]=[N+]=Nc1ncnc2nc[nH]c12`, the pKa (acidic group) was found to be 7.6. In the case of `Cc1ccc(C(=O)C(=O)O)cc1`, under “acidic group”, the pKa is 1.52. In turn, `C=CCN(CC=C)CC=C` showed a pKa (basic group) of 8.31. For `COc1cccc(/N=C/N(C)C)c1`, the pKa (basic group) turned out to be 8.6. With `Cc1cccc2cccnc12`, the pKa (basic group) was determined as 4.87. For `O=C(O)c1cc2cc(Cn3cc[nH+]c3)ccc2o1`, the pKa (acidic group) stood at 2.38.

`O=C([O-])CNCCc1nnn[n-]1` gave a pKa (basic group) of 9.23. For the setting “basic group”, `CC1CCCC(C)(C)N1C` (centres undefined) had a pKa of 10.8. For the compound `O=P([O-])([O-])C([NH2+]Cc1ccncc1)c1ccccc1O` (centres undefined), for the setting “acidic group”, the pKa worked out at 10.2.

`Nc1ccc(C(=O)c2ccc(N)cc2)cc1` displayed a pKa (basic group) of 2.92. `O=C(O)c1ccc[nH]1` had a pKa (acidic group) of 4.35 and a pKa (basic group) of -0.65. In turn, `Nc1ccc2nc3cc(N)ccc3cc2c1` showed a pKa (basic group) of 8.11. The compound `CNC(=O)CS` gave a pKa (acidic group) of 8.05. `CN(C)C(=O)CC(=O)c1ccncc1` yielded a pKa (acidic group) of 7.75. For `Cc1ccc(C(=S)Nc2ccc(Cl)c(Cl)c2)cc1`, the pKa (acidic group) is 10.2. Turning to `OCc1ccc(-c2nccc3c2[nH]c2ccccc23)o1`, under “basic group”, the pKa stood at 5.7. In turn, `O=C([O-])c1cccc(O)c1` showed a pKa (acidic group) of 9.81.

In turn, `CNCCNCCN` returned a pKa (basic group) of 10.2. In the case of `C[NH+](C)Cc1cc(C(C)(C)C)cc(C[NH+](C)C)c1O`, the pKa (acidic group) is 6.3. `Brc1cccnc1`: the pKa (basic group) worked out at 2.94.

As for `O=C(O)CC(=O)/C=N/O`, for the setting “acidic group”, the pKa was 3.5. Same read-out and setting: the same measure for `Cc1ccc(C(=O)[O-])c(O)c1`: 13.8; for `CC[NH+](CC)Cc1cc([N+](=O)[O-])c2ccccc2c1O`: 2.82. For `CNC(=O)c1ccccn1`, the pKa (basic group) worked out at 2.4. As to `[NH3+]CCCC(=O)O`, where the note is “acidic group”, the pKa came out at 4.06. The same measure, in the same setting: as for `Cc1cc(/N=N/c2ccc(S([NH-])(=O)=O)cc2)cc(C(=O)[O-])c1O`, the figure is 12.1. With `Nc1ccc(S(=O)(=O)Nc2nncs2)cc1`, the pKa is 4.77 (acidic group) and 2.15 (basic group). Take `Cc1ccc(O)c(Cc2cc([N+](=O)[O-])ccc2O)c1`: the pKa (acidic group) came to 6.34. As to `c1cncc(-c2cccnc2)c1`, the pKa (basic group) turned out to be 4.6. In turn, `NCCCCCCCCCC(=O)[O-]` registered a pKa (basic group) of 11. With `O/N=C/C=C/c1ccccc1`, where the note is “acidic group”, the pKa was found to be 10.6. `Cc1ccc(N(C)C)cc1` showed a pKa (basic group) of 5.56. The compound `Nc1ccnc(-c2cc(N)ccn2)c1` gave a pKa (basic group) of 8.8. As for `CCCCCCCc1c(-c2ccccc2)nn(-c2ccccc2)c1O`, the pKa (acidic group) was 8. On the same count and under the same terms, as for `Cc1nnc(S)n1N`, the figure is 7.97; as for `O=C1C[C@@H](C(=O)O)[C@@H](C(=O)[O-])O1`, 4.5; as for `NC(=O)c1ccc(N)cc1O`, 9.12. With `CCCCCCCCCCCCCCCCCCN(CC(C)O)CC(C)O` (centres undefined), the pKa (basic group) was found to be 9.4. For the setting “basic group”, `Cc1ccc(N)cc1C[NH3+]` had a pKa of 4.67. Under “acidic group”, `O=C(O)[C@H]1[C@@H]2C=C[C@H]1CC2` came in with a pKa of 4.58. `CN(C)CCC/N=C(\c1ccccc1)c1ccccc1O` displayed a pKa (basic group) of 9.3. Take `Oc1ccc(Cl)cc1C[NH+]1CCCC1`: the pKa (acidic group) stood at 8.3. Consider `O/C(=C\c1ccccn1)c1ccccc1`, for which the pKa reads like this: (acidic group) 11.1; (basic group) 4.52.

For `CC1SC(C)(C(=O)O)OC1=O` (centres undefined), under “acidic group”, the pKa is 1.94. Same read-out and setting: the same measure for `N#Cc1cccc(NS(=O)(=O)c2ccccc2)c1`: 7.15. The compound `c1ccc(Oc2ccnc3c2ccc2c(Oc4ccccc4)ccnc23)cc1` returned a pKa (basic group) of 5.34. On to `[NH3+][C@@H](CCCCN1C(=O)C[C@H]([NH3+])C1=O)C(=O)O`, for which the pKa (acidic group) was determined as 2.5. Take `CN(C)c1cccc(Cl)c1`: the pKa (basic group) amounted to 3.83. In the case of `C#C[C@]1(O)C[C@@H](C)N(C)[C@@H]2CCCC[C@H]21`, the pKa (basic group) came to 9.53.

`N#CC(C#N)C(c1ccccc1)C(C#N)C#N` came in with a pKa (acidic group) of 6.19. For the compound `CC(C)N1CCCCC1`, the pKa (basic group) amounted to 11.

On to `O=C(C[n+]1cccc2c3ccccc3ccc21)c1ccc(-c2ccccc2)cc1`, for which the pKa (acidic group) turned out to be 11.2. On to `Nc1nc2ccccc2[nH]1`, for which, under “basic group”, the pKa amounted to 7.49.

As for `CSc1nc(N)c2c(ncn2[C@H]2O[C@H](CO)[C@@H](O)[C@H]2O)n1`, the pKa (basic group) was 3.1. The same measure, in the same setting: the same measure for `c1nc(Cc2c[nH]c(Cc3nc(Cc4cnc[nH]4)c[nH]3)n2)c[nH]1`: 7.49; for `CN(C)CCCN`: 10. Consider `O=c1cc(-c2ccccc2O)oc2ccccc12`, for which the pKa (acidic group) worked out at 8.85. `CCOc1ccc2nc3c(c(N4CCOCC4)c2c1)CCC3` had a pKa (basic group) of 7.11.

In turn, `C[Si](C)(C)CNC[Si](C)(C)C` came in with a pKa (basic group) of 11. The same measure, in the same setting: the same measure for `Cc1nc(N)c2ncsc2n1`: 4.56. For the compound `Cc1cc(O)c(C(C)C)cc1C`, for the setting “acidic group”, the pKa is 10.8. Consider `O=C(O)[C@@H]1O[C@H](Oc2ccc3[nH+]ccc(O)c3c2)[C@@H](O)[C@H](O)[C@H]1O`, for which, under “acidic group”, the pKa was 3.15. For the setting “basic group”, `COc1ccc2ccccc2n1` came in with a pKa of 3.17. With `COC(=O)CC(=N/O)/C(C)=N/O`, the pKa (acidic group) was found to be 9.77. The compound `CC(=O)Nc1ccc(N)cc1` had a pKa (basic group) of 4.46. Still for that read-out and setting: as for `NCCC[Se-]`, the figure is 11.3.

On to `C[n+]1c([O-])c([O-])nc2ccccc21`, for which the pKa (basic group) came out at 9.74. Turning to `C[NH+](C)Cc1cc(F)cc(C[NH+](C)C)c1O`, under “acidic group”, the pKa was found to be 5.77. For the compound `Cc1nc2ncncc2[nH]1`, the pKa came to 9.37 (acidic group) and 2.85 (basic group). Regarding `NC(=O)[C@H](CCC(=O)O)NC=O`, the pKa (acidic group) stood at 4.3.

Regarding `COc1ccc([N+](=O)[O-])c2cccnc12`, the pKa (basic group) was 3.55.

Regarding `CCCCCN(CC(O)CC)CC(O)CC` (centres undefined), under “basic group”, the pKa came to 9.2. For the compound `OCC1=CCN2CC[C@@H](O)[C@@H]12`, for the setting “basic group”, the pKa was 8.92. For the setting “basic group”, `CN1CCC(NNc2ccccc2)CC1` gave a pKa of 8.7. With `CC(C#N)(Cc1ccccc1)C(=O)O` (centres undefined), where the note is “acidic group”, the pKa came to 2.29.

The compound `CNCc1ccccc1` had a pKa (basic group) of 9.64. On the same count and under the same terms, the same measure for `Cc1ccc(NC(=O)CN2CCCCC2)c(C)c1`: 7.8. Compound `CS(=O)c1cccc(O)c1` (centres undefined) yielded a pKa (acidic group) of 8.75. For `COc1cccc(C2NCCS2)c1` (centres undefined), the pKa (basic group) came out at 5.12.

Under “basic group”, `[O-]c1c(Cl)cc(Cl)cc1CN1CCOCC1` displayed a pKa of 8.85. `c1nc[nH]n1`: the pKa (basic group) was determined as 2.5. Same read-out and setting: as for `Nc1cccc2nn([C@@H]3C[C@@H](O)[C@H](CO)O3)nc12`, the figure is 2.4; as for `COCCc1nc(C)c[nH]1`, 8.13. On to `Cc1nc(NS(=O)(=O)c2ccc(N)cc2)no1`, for which, for the setting “acidic group”, the pKa came out at 4.4. In the case of `Cc1ccc(S(=O)(=O)NC(=O)OCc2ccccc2)cc1`, for the setting “acidic group”, the pKa came out at 4.21.

In turn, `Clc1nnn[nH]1` gave a pKa (acidic group) of 2.07. On the same count and under the same terms, as for `Oc1nsc2ccccc12`, the figure is 7.01; as for `CNc1cccc[n+]1O`, 2.61. The compound `CCOc1ccc2nc(/C=C/c3ccccc3)cc(N)c2c1` gave a pKa (basic group) of 9.5. Under “acidic group”, `O=C(O)/C=C/c1c[nH]c[nH+]1` gave a pKa of 3.5.

In turn, `COc1ccc2c(c1O)CN(C)CCc1cc3c(cc1C(=O)C2)OCO3` came in with a pKa (basic group) of 9. Where the note is “basic group”, `NCCc1ccccn1` displayed a pKa of 9.51. Compound `O=C(O)c1ccc(/C=C/[N+](=O)[O-])cc1` showed a pKa (acidic group) of 3.94. As for `NC1Cc2ccccc2C1`, the pKa (basic group) was determined as 9.55. Still for that read-out and setting: as for `CNc1cc[nH+]c([O-])n1`, the figure is 4.55.
